# Reference: paper PMC9643456, “Matching amino acids membrane preference profile to improve activity of antimicrobial peptides” (Communications Biology, 2022)
# Square brackets hold non-standard residues; d marks the D form. Ends that are not written are not given here. Peptide text beside a SMILES is read from it.
# What was measured:
# human red blood cells = assay: Hemolytic activity; assay type: cell-based
# Procedure, shortened: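 Haemolysis was read as A540 of cleared supernatants after 18 h at 37 °C, with 0% and 100% lysis set by peptide-free PBS and 1% Triton X-100 and melittin as positive control. Human RBCs were at 4% final, peptide serially diluted 100–0.78 μM; three replicates.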
# [1] = Maximum soluble concentration / turbidity; assay type: physicochemical; details: for Maximum soluble concentration in PBS: lyophilized peptide reconstructed in PBS at 200-6.25 μM, visible turbidity checked every 12 h for 5 days, at least twice
# Procedure, shortened: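 Peptides were diluted in PBS and checked for turbidity; maximum soluble concentration was defined as the lowest peptide concentration without visible turbidity, with each experiment run at least twice.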
# K. pneumonia strains = assay: microbe, parasite or virus in culture
molecule,measurement,setting,value
RLWWRWIVR-NH2 [HLWCopW29-4],"Hemolysis percent, 25 μM","human red blood cells; red cells of human, 18 h, 25",1.02 ±0.01%
same,"Hemolysis percent, 50 μM","human red blood cells; red cells of human, 18 h, 50",1.08 ±0.04%
same,"Hemolysis percent, 100 μM","human red blood cells; red cells of human, 18 h, 100",2.47 ±0.03%
same,Maximum soluble concentration in PBS,[1],> 200 µM
WLVWIWRRR-NH2 [LWCopW29],"Hemolysis percent, 25 μM","human red blood cells; red cells of human, 18 h, 25",0.84 ±0.06%
same,"Hemolysis percent, 50 μM","human red blood cells; red cells of human, 18 h, 50",5.15 ±0.15%
same,"Hemolysis percent, 100 μM","human red blood cells; red cells of human, 18 h, 100",13.65 ±0.74%
same,Maximum soluble concentration in PBS,[1],> 200 µM
CC[C@@H](C)[C@@H](NC(=O)[C@@H](Cc1c[nH]c2ccccc12)NC(=O)[C@H](NC(=O)[C@@H](CC(C)C)NC(=O)[C@H](N)Cc1c[nH]c2ccccc12)C(C)C)C(=O)N[C@H](Cc1c[nH]c2ccccc12)C(=O)N[C@H](CCCNC(=N)N)C(=O)N[C@H](CCCNC(=N)N)C(=O)N[C@H](CCCNC(=N)N)C(N)=O [WCopW29] (H-[dW][dL][dV][dW][dI][dW][dR][dR][dR]-NH2),Maximum soluble concentration in PBS,[1],> 200 µM
CC[C@@H](C)[C@@H](NC(=O)[C@@H](Cc1c[nH]c2ccccc12)NC(=O)[C@@H](CCCNC(=N)N)NC(=O)[C@@H](CCCNC(=N)N)NC(=O)[C@H](N)CCCNC(=N)N)C(=O)N[C@H](Cc1c[nH]c2ccccc12)C(=O)N[C@@H](C(=O)N[C@@H](C(=O)N[C@H](Cc1c[nH]c2ccccc12)C(=O)N[C@H](CCCCN)C(N)=O)[C@H](C)CC)C(C)C [WCopW43] (H-[dR][dR][dR][dW][dI][dW][dV][dI][dW][dK]-NH2),"Hemolysis percent, 25 μM","human red blood cells; red cells of human, 18 h, 25",1.12 ± 0.20%
same,"Hemolysis percent, 50 μM","human red blood cells; red cells of human, 18 h, 50",2.22 ± 0.67%
same,"Hemolysis percent, 100 μM","human red blood cells; red cells of human, 18 h, 100",5.02 ±0.63%
same,"MIC, K. pneumonia NCCP 15782",K. pneumonia strains; 18 h,1.25 µM
same,"MIC, K. pneumonia NCCP 15864",K. pneumonia strains; 18 h,1.25 µM
same,"MIC, K. pneumonia NCCP 15866",K. pneumonia strains; 18 h,2.5 µM
same,"MIC, K. pneumonia NCCP 16052",K. pneumonia strains; 18 h,2.5 µM
same,"MIC, K. pneumonia NCCP 16124",K. pneumonia strains; 18 h,1.25 µM
same,"MIC, K. pneumonia NCCP 16125",K. pneumonia strains; 18 h,2.5 µM
same,"MIC, K. pneumonia NCCP 16128",K. pneumonia strains; 18 h,5 µM
same,"MIC, K. pneumonia NCCP 16208",K. pneumonia strains; 18 h,1.25 µM
same,"MIC, K. pneumonia NCCP 16212",K. pneumonia strains; 18 h,2.5 µM
same,"MIC, K. pneumonia NCCP 16213",K. pneumonia strains; 18 h,1.25 µM
same,Turbidity in PBS,[1]; 10 mg/ml peptide in PBS,turbid
Colistin,"Hemolysis percent, 25 μM","human red blood cells; peptide 25 μM, 8% human red blood cells in PBS (final 4%), 18 h 37 °C, absorbance 540 nm, 1% Triton X-100 = 100%, triplicate",0.24 ±0.09%
same,"Hemolysis percent, 50 μM","human red blood cells; peptide 50 μM, 8% human red blood cells in PBS (final 4%), 18 h 37 °C, absorbance 540 nm, 1% Triton X-100 = 100%, triplicate",0.31%
same,"Hemolysis percent, 100 μM","human red blood cells; peptide 100 μM, 8% human red blood cells in PBS (final 4%), 18 h 37 °C, absorbance 540 nm, 1% Triton X-100 = 100%, triplicate",0.39 ±0.06%
same,"MIC, K. pneumonia NCCP 15782",K. pneumonia strains; CLSI,1.25 µM
same,"MIC, K. pneumonia NCCP 15864",K. pneumonia strains; CLSI,0.63 µM
same,"MIC, K. pneumonia NCCP 15866",K. pneumonia strains; CLSI,0.63 µM
same,"MIC, K. pneumonia NCCP 16052",K. pneumonia strains; CLSI,0.63 µM
same,"MIC, K. pneumonia NCCP 16124",K. pneumonia strains; CLSI,20 µM
same,"MIC, K. pneumonia NCCP 16128",K. pneumonia strains; CLSI,5 µM
same,"MIC, K. pneumonia NCCP 16208",K. pneumonia strains; CLSI,< 0.31 µM
same,"MIC, K. pneumonia NCCP 16212",K. pneumonia strains; CLSI,< 0.31 µM
same,"MIC, K. pneumonia NCCP 16213",K. pneumonia strains; CLSI,0.63 µM
